# Data published in patent US20260144805A1, “CANNABIDIOL COMPOSITIONS FOR USE IN THE TREATMENT OF NEURODEGENERATIVE AND NEUROLOGICAL DISORDERS” (JAZZ PHARMACEUTICALS RESEARCH UK LIMITED, priority 2022, published 2026).
# How the values were obtained:
# Type in all cases: in vivo
# rat VPA model [1] = assay: Irritability-like behaviour: bottle brush test in rat VPA model, juvenile P30 and adult (Example 5; DS = DS-E); conditions: risperidone 0.125 mg/kg
# Protocol: (§1) Time-mated female Wistar rats were administered a single dose of valproic acid (VPA, 600 mg/kg, i.p.) on gestational day 12.5. Male offspring were delivered and confirmation of the VPA induced developmental deficit was rapidly achieved by examination of characteristic “tail kinks” in the juvenile animals. The timeline of experiments is outlined in FIG. 8 and animals were randomly allocated to treatment groups (Table O).
# (§2) Control animals were administered sterile saline (0.9% w/v, i.p.) in utero and the vehicle control (ethanol: Kolliphor HS15: saline (1:1:18, v/v/v), i.p.
# To test irritability-like behavior we employed the bottle-brush test modified for rats (Riittinen et al. 1986 Dev Psychobiol 19:105-111). Irritability-like behavior was examined by measuring aggressive and defensive responses during the bottle-brush test carried out in juvenile animals immediately after play behavior evaluation at P30 and again in adult animals on P59. Irritability-like behavior testing was performed under dark conditions with a red light and infrared camera recording. Testing consisted of 10 trials per rat in plastic cages (377×325×170 mm) with fresh bedding. During each trial, the rat was placed at the back of the cage. A bottle-brush was rotated toward the animal's whiskers (from the front of the cage). The brush was rotated around the whiskers of the rat for approximately 1 second. The brush was then rotated back to the front of the cage where it hangs vertically for approximately 2 seconds, during which behavioural responses were recorded. An intertrial interval of 10 second was used.
# Employing video analysis of the test, the following were scored as aggressive responses: smelling the brush, biting the brush (during the initial phase of rotating the brush forward and back to the starting position), boxing the target, following the brush, exploring the brush (using paws or mouth to manipulate the brush without biting or boxing), mounting the brush, and delayed biting (during the 2 s that the brush hung at the starting position). Additionally, the following were scored as defensive responses: escaping from the brush, digging, burying, jumping, climbing, vocalization, freezing, and grooming. Frequency of each response and the sum of aggressive and defensive behaviours were recorded.
# (§3) All data was assessed for outliers (ROUT; Prism V9.02) and then normality using D'Agostino and Pearson normality test for n=8, or Shapiro-Wilks test for n<8 or unequal groups. Data that were non-normally distributed were analysed using Kruskal-Wallis followed by planned comparisons with Dunn's correction. Normally distributed data were analysed using one-way ANOVA or two-way ANOVA followed by planned comparisons with Sidak's correction. […] Statistical significance was defined as p<0.05 using Prism 9.0.2 software for analysis.
# rat VPA model [2] = assay: Direct social interaction and social play P30 in rat VPA model (Example 5; DS = DS-E)
# Protocol: as §1, §2
# At postnatal day 30 and following 8 days treatment with the test compounds, animals were evaluated for juvenile play behavior. […] Animals were first allowed to individually explore the arena for 10-minute acclimatization trial (P29) and 24 hours later evaluated for social play (P30). On day of evaluation animals were scored for play activity measured by pinning (latency to, total duration and frequency), mounting (latency to, total duration and frequency) and latency, frequency and duration of social play behavior (following or approaching test partner, sniffing or social grooming). […]
# All data was assessed for outliers (ROUT; Prism V9.02) and then normality using D'Agostino and Pearson normality test for n=8, or Shapiro-Wilks test for n<8 or unequal groups. […]
# rat VPA model [3] = assay: Open field test (locomotor activity, circling, grooming, centre zone) P56-57 in rat VPA model (Example 5; DS = DS-E); conditions: adult, risperidone 0.125 mg/kg
# Protocol: as §1, §2
# Animals were scored for locomotor activity and exploratory behavior in a two 10-minute trials within an open field arena over two days. Each day the animals were placed into a […] black Perspex box with 30 cm side walls, under low light and monitored via remote video capture for spontaneous activity. Linked to Ethovision XT image analysis software this was analysed for total distance moved and number and duration of center zone crossings. Manual scoring of the videos was then conducted (blinded to treatment group) to determine frequency of circling behavior (number of 360 degree turns) and time spent grooming.
# as §3
# rat VPA model [4] = assay: Marble burying test P58 in rat VPA model (Example 5; DS = DS-E); conditions: adult P58, risperidone 0.125 mg/kg
# Protocol: as §1, §2
# The marble burying test has been employed as an animal model of anxiety and impulsive behavior. […] Over a 10-minute test period animals were allowed to freely explore the apparatus and subsequently removed whereupon marbles covered by at least one half with bedding were considered buried and this number was recorded and was the main outcome measure for this behavior. Video recording of the test period was evaluated for locomotor activity and scored for frequency and duration of digging behavior.
# as §3
# rat VPA model [5] = assay: Social interaction: Social Approach Avoidance (SAA) P60 in rat VPA model (Example 5; DS = DS-E); conditions: adult; risperidone 0.125 mg/kg
# Protocol: as §1, §2
# This test was originally used for assessing anxiety-like behavior and subsequently used to assess the social behavior in potential animal models of schizophrenia (Sams-Dodd, 1995 Behav Pharmacol. 6:55) but has been extended to the study of autism models (Schneider and Przewlocki, 2005 Neuropsychopharmacol. 30:80). Therefore, utilising a model based on published designs (Brodkin et al., 2004 Brain Res. 1002:151; Moy et al., 2004 Genes Brain Behav. 3:287) adult animals were assessed for social preference following prenatal VPA exposure whereby a novel animal was introduced to the test arena (n=8). The main outcome measure was the time engaged in active social behavior. Additionally, the time spent in each of the social, non-social and neutral chamber was also determined. […]
# [6] = tested on: valproic acid-induced autism spectrum disorder (ASD) mouse model; assay: Valproic acid-induced ASD model, autism-like behaviors, DS vs sCBD and risperidone (Example 6, Table P); set-up: key to Adult open field hyperactivity (spontaneous LMA on day 1) / Adult open field hyperactivity (LMA on day 2) / Adult marble burying / Adult grooming / Juvenile vocalisation: +: improvement; Ø: no change; −: not tested; conditions: 0.125 mg/kg I.P.
# Excerpt: (§4) The main objective of the following study was to assess the effect of the drug substance (DS) of Example 1 in ameliorating autism-like behavior in valproic acid-induced autism spectrum disorder (ASD) mouse model (FIGS. 19A-B).
# [7] = tested on: valproic acid-induced autism spectrum disorder (ASD) mouse model; assay: Valproic acid-induced ASD model, bottle-brush test (irritability) (Example 6, Table P); set-up: key: +: improvement; Ø: no change; −: not tested; conditions: 0.125 mg/kg I.P.
# Excerpt: as §4
# [8] = juvenile P30, 8 days, vs VPA/VEH
structure (smiles),measurement,setting,value
Cc1nc2n(c(=O)c1CCN1CCC(c3noc4cc(F)ccc34)CC1)CCCC2 [Risperidone],"defensive behaviours, bottle brush",rat VPA model [1]; adult,no significant effect
same,"aggressive behaviour, bottle brush","rat VPA model [1]; adult, all days of assessment",significantly reduced
same,"irritability score, bottle brush","rat VPA model [1]; adult, all four assessment days",significantly reduced
same,"aggressive responses, bottle brush",rat VPA model [1]; [8],significantly reduced
same,"irritability score (aggressive + defensive), bottle brush",rat VPA model [1]; [8],no effect
same,Social duration and frequency behaviours,"rat VPA model [2]; juvenile P30, risperidone 0.125 mg/kg",no effect
same,any measure of play or social interaction,"rat VPA model [2]; juvenile animals, Risperidone 0.125 mg/kg",without effect
same,grooming behaviour,rat VPA model [3]; day 1,significantly reduced
same,frequency of centre zone crossings,"rat VPA model [3]; day 1, vs VPA/Veh",significant decrease
same,circling behaviour,rat VPA model [3]; day 2,significantly reversed
same,grooming behaviour,rat VPA model [3]; day 2,significantly reduced
same,number of centre zone crossings,rat VPA model [3]; day 2,significantly reduced
same,time spent in the centre zone,rat VPA model [3]; day 2,significantly reduced
same,increase in locomotor activity (distance travelled),rat VPA model [3]; day one,significantly prevented
same,time spent in the centre zone,rat VPA model [3]; day one,significantly reduced
same,increase in locomotor activity (distance travelled),rat VPA model [3]; day two,significantly prevented
same,VPA-induced digging behaviour,rat VPA model [4],significantly reduced
same,number of marbles buried,rat VPA model [4],no significant effect
same,number of marbles buried,rat VPA model [4]; listed as risperidone,significantly reduced
same,time engaged in active social behaviour (VPA deficit),rat VPA model [5],not prevented
same,Adult grooming,[6]; control beside DS,+
same,Adult marble burying,[6]; control beside DS,+
same,Adult open field hyperactivity (LMA on day 2),[6]; control beside DS,+
same,Adult open field hyperactivity (spontaneous LMA on day 1),[6]; control beside DS,+
same,Adult grooming,[6]; control beside sCBD,+
same,Adult marble burying,[6]; control beside sCBD,+
same,Adult open field hyperactivity (LMA on day 2),[6]; control beside sCBD,+
same,Adult open field hyperactivity (spontaneous LMA on day 1),[6]; control beside sCBD,+
same,Adult marble burying,[6]; control beside sCBD-2,+
same,Adult open field hyperactivity (LMA on day 2),[6]; control beside sCBD-2,Ø
same,Adult open field hyperactivity (spontaneous LMA on day 1),[6]; control beside sCBD-2,+
same,Adult bottle brush irritability test,[7]; control beside DS,+
same,Juvenile bottle brush irritability test,[7]; control beside DS,Ø
same,Adult bottle brush irritability test,[7]; control beside sCBD,+
same,Juvenile bottle brush irritability test,[7]; control beside sCBD,+
same,Adult bottle brush irritability test,[7]; control beside sCBD-2,+
same,Juvenile bottle brush irritability test,[7]; control beside sCBD-2,+
